Values quoted from earlier work in patent US20100331420A1, “Combination Therapies for the Treatment of Obesity” (priority 2009, published 2010).

Conditions: published studies of each weight loss medication

With `CC(C)CC(N(C)C)C1(c2ccc(Cl)cc2)CCC1` (stereo not drawn) [sibutramine] as the molecule, how does the “weight loss of body weight for drug compared with placebo” value (“weight loss … compared with placebo” for short) read?
The value was “about 5%”.

For `CCCCCCCCCCC[C@@H](C[C@@H]1OC(=O)[C@H]1CCCCCC)OC(=O)[C@H](CC(C)C)NC=O` [orlistat], which “weight loss … compared with placebo” value is on record?
The value was “about 5%”.

For `CCN[C@@H](C)Cc1cccc(C(F)(F)F)c1` [dexfenfluramine], which “weight loss … compared with placebo” value is on record?
Its value is “about 5%”.
